Columns and labels:
Format in all cases: in vivo
[1] = system: Myelin Basic Protein (MBP); test: Ex.7 neuroprotective HIE rat model: myelin basic protein staining; settings: vs vehicle
Text: (§1) FIG. 21. Myelin Basic Protein (MBP) staining of brain coronal sections in rat pups that were pre-treated with estetrol. Brains were removed upon sacrifice at postnatal day 14 and paraformaldehyde-fixed and paraffin-embedded brain samples were coronally sectioned at the hippocampus region. The sections were processed for detection of white matter damage through immunohistological staining with anti-MBP antibody. (A-F) MBP staining of brain coronal sections (scale bar: 2 mm) is shown. (G-L) MBP staining of cingulum of the left hemisphere is (scale bar: 2 mm) shown. (M) The ratio of the MBP positive areas OD ratio was calculated as the MBP positive area OD of the ipsilateral hemisphere divided by the MBP positive area OD of the contralateral hemisphere. 10 samples from each study group were analyzed. The ratio of the MBP positive area OD in the Sham group was considered by default as 1.0.
(§2) The sections were processed for immunohistochemical detection of neuronal myelin basic protein disruption. For antigen retrieval, the sections were heated in 10 mmol/L citrate buffer (pH 6.0) at 100° C. for 10 min. […] 10 samples from each study group of both study designs were analyzed with the aid of an image scanner (Nanozoomer Virtual Microscopy, Hamamatsu, Tokyo, Japan) and ImageJ software (NIH, USA). The MBP positive areas optical densities in the ipsilateral and contralateral hemispheres were measured. […]

[2] = system: Myelin Basic Protein (MBP); test: Ex.7 therapeutic HIE rat model: myelin basic protein staining; settings: all the E4 treated groups, vs vehicle
Experimental: as §1, with “FIG. 22. Myelin Basic” for “FIG. 21. Myelin Basic”, “that were treated with estetrol.” for “that were pre-treated with estetrol.”, “2 mm) is shown. (M)” for “2 mm) shown. (M)”
as §2

[3] = system: intact cells in hippocampus and cortex; test: Ex.8 therapeutic HIE rat model: intact cell counting
Experimental: To study the therapeutic effect of estetrol, newborn rat pups were assigned to one of the following 14 groups at postnatal day 7 (FIG. 23(B)): Sham group (n=12), Vehicle (n=15), 5 mg/kg/day E4 (n=11), 10 mg/kg/day E4 (n=11), 5 mg/kg/day E4+1.6 mg/kg/day PROG (n=11), 10 mg/kg/day E4+1.6 mg/kg/day PROG (n=11), 5 mg/kg/day E4+16 mg/kg/day PROG (n=11), 10 mg/kg/day E4+16 mg/kg/day PROG (n=13), 5 mg/kg/day E4+136 ng//kg/day E2 (n=11), 10 mg/kg/day E4+136 ng/kg/day E2 (n=11), 5 mg/kg/day E4+1.6 mg/kg/day PROG+136 ng/kg/day E2 (n=12), 10 mg/kg/day E4+1.6 mg/kg/day PROG+136 ng/kg/day E2 (n=11), 5 mg/kg/day E4+16 mg/kg/day PROG+136 ng/kg/day E2 (n=11), 10 mg/kg/day E4+16 mg/kg/day PROG+136 ng/kg/day (n=12) groups. […] After surgery, the pups were returned to their dams and allowed to recover for 1 hour. The pups were then placed in a humidified hypoxic in vivo cabinet (CoyLab). Hypoxia was produced by the inhalation of 11%-8% of oxygen balanced by nitrogen at decreased concentration of oxygen for 20 minutes, followed by inhalation of 8% oxygen and 92% nitrogen at constant concentration for 35 minutes. All the manipulations were performed at 37° C. Upon retrieval from the hypoxia chamber the rat pups were injected ip once either by vehicle (vehicle group) or by in accordance to the group assignment. The animals from the sham group went through similar procedures but proceeded neither left common carotid artery ligation and cut followed by hypoxia nor injections. Rat pups recovered with their dams until being sacrificed at postnatal day 14 (FIG. 24(B)). […]
Intact cell counting was performed on hematoxylin-eosin-stained sections of the rat pups brains at magnification 400× in 3 fields of the respective brain area. […] The sections were analyzed with the aid of a microscope (Olympus BX51, Olympus, Tokyo, Japan), an image scanner (DotSlide Digital Virtual Microscopy, Olympus, Germany) and ImageJ software (NIH, US). […]

SMILES: C[C@]12CC[C@@H]3c4ccc(O)cc4CC[C@H]3[C@@H]1[C@@H](O)[C@@H](O)[C@@H]2O [E4, 1,3,5(10)-estratrien-3,15α,16α,17β-tetrol]
- ratio of the MBP-positive area OD ([1]; 5 mg/kg/day E4 pre-treated): significantly higher
- ratio of the MBP-positive area OD ([1]; 50 mg/kg/day E4 pre-treated): significantly higher
- ratio of the MBP-positive area OD [2]: significantly higher
- number of intact cells ([3]; 10 mg/kg/day E4, CA1): 57.30±5.19
- intact cell counting per visual field ([3]; 10 mg/kg/day E4, DG): 150.20±9.43
- number of intact cells ([3]; 10 mg/kg/day E4, cortex): 46.60±1.83

Source: patent US9808470B2, “Estrogenic components for use in the treatment of neurological disorders” (UNIVERSITE DE LIEGE, priority 2012, dated 2017)
